Assay results: the supplement of paper PMC10307832

Experiments:
Test in all cases: relative viability (nuclei count vs DMSO), 5 days (fraction); higher = more cells survive
[1] = compound: COC1=CC=C(C=C1)COC2=C(C=C(C=C2)CC3=CN=C(N=C3N)N)OC [GW-2580] + CCNC(=O)c1noc(-c2cc(C(C)C)c(O)cc2O)c1-c1ccc(CN2CCOCC2)cc1 [Luminespib] (partner 0.01 µM)
In short: (§1)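 After 5 days of treatment, lung cancer cells in 1536-well plates were fixed and stained in a single step (final 0.05% Triton X-100, 1% formaldehyde, 1 ug/ml Hoechst) and their nuclei counted on 4× images. Treatment had been applied by pin tool the day after seeding as one drug alone or as a fixed anchor-drug dose with five library-drug doses (not always all listed) in √10 steps. Relative viability is the nuclei count of treated wells divided by that of vehicle wells, and values are medians of duplicate plates.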

[2] = compound: COC1=CC=C(C=C1)COC2=C(C=C(C=C2)CC3=CN=C(N=C3N)N)OC [GW-2580] + Cc1nc(Nc2ncc(C(=O)Nc3c(C)cccc3Cl)s2)cc(N2CCN(CCO)CC2)n1 [Dasatinib] (partner 0.075 µM)
In short: as §1

[3] = compound: Cc1cnc(Nc2ccc(OCCN3CCCC3)cc2)nc1Nc1cccc(S(=O)(=O)NC(C)(C)C)c1 [Fedratinib] + O=C(CCCCCCC(=O)Nc1ccccc1)NO [Vorinostat] (partner 1 µM)
In short: as §1

[4] = compound: Cc1cnc(Nc2ccc(OCCN3CCCC3)cc2)nc1Nc1cccc(S(=O)(=O)NC(C)(C)C)c1 [Fedratinib] + Cc1nc(NC(=O)N2CCC[C@H]2C(N)=O)sc1-c1ccnc(C(C)(C)C(F)(F)F)c1 [Alpelisib] (partner 2 µM)
In short: as §1

Cell Line | relative viability ([1]; first compound 0.08 µM) | relative viability ([1]; first compound 0.8 µM) | relative viability ([1]; first compound 2.53 µM) | relative viability ([1]; first compound 8 µM) | relative viability ([2]; first compound 0.08 µM) | relative viability ([2]; first compound 0.8 µM) | relative viability ([2]; first compound 2.53 µM) | relative viability ([2]; first compound 8 µM) | relative viability ([3]; first compound 0.1 µM) | relative viability ([3]; first compound 0.3162 µM) | relative viability ([3]; first compound 1 µM) | relative viability ([4]; first compound 0.1 µM) | relative viability ([4]; first compound 0.3162 µM) | relative viability ([4]; first compound 1 µM)
NCI-H2342 | 0.788 | 0.77 | 0.859 | 0.714 | 0.329 | 0.327 | 0.297 | 0.332 | 0.94 | 0.71 | 0.926 |  |  | 
HCC-15 | 0.308 | 0.296 | 0.436 | 0.521 | 0.639 | 0.73 | 0.629 | 0.578 | 0.875 | 0.824 | 0.845 | 0.746 | 0.793 | 0.758
A-427 | 1.1 | 0.83 | 0.927 | 0.798 | 0.758 | 0.794 | 0.511 | 0.735 | 0.873 | 0.792 | 0.781 | 1.07 | 0.949 | 0.959
NCI-H2228 | 0.167 | 0.185 | 0.0943 | 0.183 | 0.557 | 0.551 | 0.441 | 0.488 | 0.744 | 0.589 | 0.545 | 0.59 | 0.842 | 0.747
NCI-H1734 | 0.169 | 0.171 | 0.193 | 0.19 | 0.459 | 0.497 | 0.456 | 0.447 | 1.07 | 0.796 | 0.685 | 0.627 | 0.654 | 0.62
PC-14 | 0.144 | 0.129 | 0.175 | 0.131 | 0.347 | 0.281 | 0.228 | 0.218 | 0.761 | 0.83 | 0.727 | 0.915 | 0.961 | 0.916
NCI-H1915 | 0.852 | 1.12 | 0.429 | 0.917 | 0.356 | 0.295 | 0.272 | 0.273 | 0.539 | 0.507 | 0.459 | 1.03 | 1.04 | 0.943
NCI-H1666 | 0.984 | 1.09 | 0.918 | 0.928 | 0.874 | 0.901 | 0.758 | 0.755 | 1.07 | 1.1 | 0.928 | 0.872 | 1.05 | 1.02
HCC-366 |  |  |  |  | 0.711 | 0.759 | 0.603 | 0.563 | 0.302 | 0.343 | 0.249 | 0.273 | 0.458 | 0.356
SK-MES-1 | 0.869 | 0.989 | 0.701 | 0.83 | 0.444 | 0.477 | 0.304 | 0.292 | 1.08 | 1.09 | 0.976 | 0.909 | 0.829 | 0.809
SW 1573 | 0.257 | 0.213 | 0.24 | 0.217 | 0.464 | 0.45 | 0.452 | 0.407 | 0.744 | 0.701 | 0.413 | 0.813 | 0.867 | 0.703
NCI-H1623 | 0.382 | 0.43 | 0.482 | 0.471 | 0.46 | 0.645 | 0.447 | 0.583 |  |  |  |  |  | 
Calu-6 |  |  |  |  |  |  |  |  |  |  |  | 0.915 | 0.906 | 0.801
NCI-H1650 | 0.195 | 0.195 | 0.197 | 0.182 | 0.339 | 0.399 | 0.326 | 0.296 | 0.433 | 0.581 | 0.605 |  |  | 
NCI-H1299 |  |  |  |  |  |  |  |  |  |  |  | 1.08 | 1.07 | 1.05
EBC-1 |  |  |  |  |  |  |  |  |  |  |  | 0.743 | 0.808 | 0.592
NCI-H1648 |  |  |  |  |  |  |  |  | 0.291 | 0.36 | 0.616 |  |  | 
NCI-H1792 | 0.503 | 0.444 | 0.567 | 0.411 | 1.48 | 0.82 |  | 1.01 |  |  |  | 0.458 | 0.662 | 0.666
ChaGo-K-1 | 0.757 | 0.677 | 0.501 | 0.562 | 0.663 | 0.552 | 0.605 | 0.587 | 0.74 | 0.757 | 0.718 |  |  | 
HCC-44 | 1.14 | 0.945 | 0.988 | 1.15 |  |  |  |  | 1.13 | 1.08 | 1.01 | 0.759 | 0.771 | 0.801
A549 |  |  |  |  |  |  |  |  |  |  |  | 0.74 | 0.691 | 0.622
NCI-H1563 | 0.546 | 0.522 | 0.484 | 0.545 | 0.473 | 0.534 | 0.458 | 0.447 |  |  |  | 0.853 | 0.909 | 0.916
NCI-H522 | 1.22 | 1.57 | 1.14 | 1.24 | 0.95 | 0.787 | 0.795 | 1.02 | 0.703 | 0.82 | 0.895 |  |  | 
HCC-78 |  |  |  |  | 0.322 | 0.467 | 0.286 | 0.298 | 0.382 | 0.514 | 0.469 | 0.324 |  | 0.34
IA-LM |  |  |  |  |  |  |  |  | 0.901 | 0.95 | 0.979 | 0.563 | 0.758 | 0.658
NCI-H1703 |  |  |  |  |  |  |  |  |  |  |  | 0.161 | 0.361 | 0.25
SW 900 | 0.17 | 0.182 | 0.161 | 0.146 | 0.787 | 0.505 | 0.802 | 0.585 | 0.344 | 0.377 | 0.462 |  |  | 
